Like-named read-outs stand apart in the source and are kept apart here.
Columns and labels:
[1] = system: Shh-induced Gli reporter activity; test: Gli-luciferase reporter assay in Shh-LIGHT2 cells; assay type: cell-based
Description: FIG. 4. […] Cells were then exposed to [3H]-thymidine for 16 h and [3H]-thymidine incorporation was measured. Data were fit using Graphpad Prism (mean±SEM, n=3).
The Gli-luciferase assay was conducted in Shh-LIGHT2 cells, a clonal NIH3T3 cell line stably incorporating Gli-dependent firefly luciferase and constitutive Renilla luciferase reporters35. Cells were treated with purified Sonic Hedgehog protein (50 ng/mL) together with the corresponding compounds for 2 days. The reporter activity was determined by using the Dual-Luciferase Reporter Assay System (Promega).

Smo-D473H = biological target: T1, Smo-D473H (Homo sapiens, UniProt Q99835, D473H); test: [3H]-cyclopamine competitive binding, Smo-D473H mutant; conditions: for competition for binding / displacement of [3H]-cyclopamine from Smo-D473H: U2OS cells overexpressing Smo-D473H
T1 construct: expressed in transfected cells; host or cells: U2OS
T1 sequence (Q99835 28-787 D473H): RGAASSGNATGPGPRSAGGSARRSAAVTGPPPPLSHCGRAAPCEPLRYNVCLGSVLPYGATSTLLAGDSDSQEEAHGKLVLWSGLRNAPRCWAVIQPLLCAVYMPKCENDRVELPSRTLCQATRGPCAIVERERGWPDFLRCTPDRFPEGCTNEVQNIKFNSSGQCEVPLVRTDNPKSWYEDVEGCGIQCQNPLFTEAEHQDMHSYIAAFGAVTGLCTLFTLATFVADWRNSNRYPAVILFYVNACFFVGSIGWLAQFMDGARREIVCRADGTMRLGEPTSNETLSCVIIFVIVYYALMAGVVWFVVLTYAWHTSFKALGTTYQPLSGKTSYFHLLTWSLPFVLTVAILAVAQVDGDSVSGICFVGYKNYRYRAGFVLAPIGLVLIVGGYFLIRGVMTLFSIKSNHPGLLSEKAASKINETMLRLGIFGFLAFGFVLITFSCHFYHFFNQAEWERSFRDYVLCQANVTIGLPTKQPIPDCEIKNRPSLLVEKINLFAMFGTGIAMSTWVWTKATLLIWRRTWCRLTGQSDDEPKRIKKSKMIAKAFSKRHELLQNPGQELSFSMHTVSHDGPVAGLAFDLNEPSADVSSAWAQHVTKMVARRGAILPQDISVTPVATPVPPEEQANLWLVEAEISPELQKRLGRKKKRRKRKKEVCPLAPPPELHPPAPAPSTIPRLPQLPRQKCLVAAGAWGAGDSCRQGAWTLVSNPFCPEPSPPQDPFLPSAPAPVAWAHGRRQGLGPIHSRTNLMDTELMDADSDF
Description: (§1) FIG. 3. […] The displacement data were analyzed by fitting to a one-site competition curve using Graphpad Prism. Data were acquired in triplicates from three independent experiments and are presented as the mean±SEM.
(§2) For competitive binding assays, U2OS cells overexpressing wild-type Smo or Smo-D473H mutant receptors were grown in 24-well plates and fixed with 4% (v/v) formaldehyde/PBS for 20 min at room temperature (RT).

[2] = system: cerebellar granular cell precursor (GCP) cells; test: GCP cell proliferation ([3H]-thymidine incorporation); assay type: cell-based, mouse; conditions: read-out: IC50, inhibition of GCP proliferation
Description: FIG. 4. Compound A8 inhibits Gli-reporter activity and GCP proliferation. […] Cells were then exposed to [3H]-thymidine for 16 h and [3H]-thymidine incorporation was measured. Data were fit using Graphpad Prism (mean±SEM, n=3).
Primary neuronal granular cell precursor (GCP) cells were obtained from the cerebellum of 7-day postnatal C57BL/6 mice and labeled with [3H]-thymidine. Proliferation assays were performed as previously described28.

[3] = Storage of the active impurity in solution, activity retained; assay type: physicochemical; conditions: room temperature, DMSO or methanolic solution, 1 week
Source text: Subsequent characterization of this impurity by high-resolution mass spectrometry (HRMS) and by extensive NMR analysis allowed assignment of structure to the impurity as shown for Compound A8 (FIG. 2A). Confirmation of the structural assignment was achieved by synthesis of authentic material using the route described in FIG. 2B. Synthesized material matched the isolated material from the library sample by extensive NMR analysis, HRMS, TLC and HPLC.

Smo-633 = biological target: T2, Smo-633 (Homo sapiens, UniProt Q99835); test: Smo/βarr2-GFP translocation high-throughput imaging assay (antagonist mode); assay type: cell-based; conditions: for inhibition of intracellular βarr2-GFP aggregation: U2OS cells with Smo-633 and βarr2-GFP, 5 μM
T2 construct: expressed in transfected cells
T2 sequence (Q99835 with tags, fused parts or gaps limits assumed): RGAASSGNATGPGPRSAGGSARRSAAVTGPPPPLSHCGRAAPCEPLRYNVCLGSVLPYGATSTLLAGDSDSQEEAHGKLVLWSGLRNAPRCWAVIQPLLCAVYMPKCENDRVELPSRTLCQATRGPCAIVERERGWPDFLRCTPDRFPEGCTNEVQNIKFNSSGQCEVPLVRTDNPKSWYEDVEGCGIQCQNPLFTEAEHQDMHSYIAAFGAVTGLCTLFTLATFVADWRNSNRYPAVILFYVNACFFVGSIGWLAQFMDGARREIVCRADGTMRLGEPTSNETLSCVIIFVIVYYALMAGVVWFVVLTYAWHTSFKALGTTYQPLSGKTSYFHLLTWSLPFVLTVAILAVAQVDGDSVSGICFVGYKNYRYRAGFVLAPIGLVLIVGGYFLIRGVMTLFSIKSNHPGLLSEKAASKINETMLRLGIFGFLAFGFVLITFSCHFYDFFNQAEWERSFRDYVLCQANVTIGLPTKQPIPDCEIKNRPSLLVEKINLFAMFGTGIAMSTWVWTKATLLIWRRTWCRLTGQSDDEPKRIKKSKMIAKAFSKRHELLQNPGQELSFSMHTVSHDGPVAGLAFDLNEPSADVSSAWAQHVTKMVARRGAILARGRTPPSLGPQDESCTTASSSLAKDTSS
Source text: U2OS cells stably expressing a chimera Smo-633 receptor and βarr2-GFP were used in HTS screening.
To identify novel Smo inhibitors, we screened chemical libraries using our confocal imaging, cell-based platform assay as the primary high-throughput screening assay. […] Thus, small molecule inhibitors of Smo are identified by the loss of the punctate pattern.
To control for receptor specificity and to rule-out non-specific mechanisms, hits were cross-screened in the same assay format using the vasopressin2 receptor (V2R), a different seven-transmembrane receptor. In this control assay, cells transfected with V2R and βarr2-GFP are stimulated with the agonist arginine vasopressin. […] This control assay helps ensure the mechanism of inhibition is Smo receptor specific and allows molecules with non-specific mechanisms of inhibition to be ruled-out.

wild-type Smo = biological target: T3, wild-type Smo (Homo sapiens, UniProt Q99835); test: [3H]-cyclopamine competitive binding, wild-type Smo; conditions: 25 nM [3H]-cyclopamine; for displacement of [3H]-cyclopamine from wild-type Smo: U2OS cells overexpressing wild-type Smo; for Ki: fixed U2OS cells overexpressing wild-type Smo, mean±SEM, read-out: Ki, displacement of [3H]-cyclopamine from Smo
T3 construct: expressed in transfected cells; host or cells: U2OS
T3 sequence (Q99835 28-787): as the sequence (Q99835 28-787 D473H) above, with H446D counted along it
Description: as §1, §2

Hh-induced hair growth = test: Hair regrowth after depilation, topical treatment; assay type: in vivo, mouse; conditions: C57BL/6 female mice, 0.5 mM, 30 μl topically daily for two weeks
Description: Eight-week-old C57BL/6 female mice were shaved on the dorsal surface and depilated with Nair® (Carter-Wallace, New York, N.Y.). Briefly, the bottom half of the shaved area was treated with Nair for 2 min, and the depilated area rinsed with water to remove residual Nair. Compound A8 was dissolved in a vehicle of 95% acetone/5% DMSO at a concentration of 0.5 mM, and 30 μl of A8 solution or the vehicle were applied topically to the depilated area of mice daily for two weeks. Mice were anesthetized briefly using 3% isoflurane anesthetic inhalant during all procedures. Five mice were included in each treatment group. All animals were treated in accordance with protocols approved by Institutional Animal Care and Use Committee at Duke University.
Hedgehog signaling plays a key role in regulating hair follicle growth40. To determine the efficacy of the novel Smo inhibitor A8 in suppressing Hh signaling in vivo, we used a model of hedgehog inhibition that examines inhibition of hair-growth41-43. Eight-week old Female C57BL mice in telogen phase of the hair cycle were used in these experiments44. Chemical depilation with Nair® induces anagen phase and regrowth of hair by activating the Hh signaling pathway. In our experiments, most of the hair on the back of vehicle treated mice grew back 2 weeks after removal with Nair (data not shown).

[4] = biological target: T4, vasopressin2 receptor (V2R) (Homo sapiens, UniProt P30518); conditions: cells transfected with V2R and βarr2-GFP, arginine vasopressin stimulated; cited from earlier work
T4 construct: expressed in transfected cells
T4 sequence (P30518 whole entry, species assumed): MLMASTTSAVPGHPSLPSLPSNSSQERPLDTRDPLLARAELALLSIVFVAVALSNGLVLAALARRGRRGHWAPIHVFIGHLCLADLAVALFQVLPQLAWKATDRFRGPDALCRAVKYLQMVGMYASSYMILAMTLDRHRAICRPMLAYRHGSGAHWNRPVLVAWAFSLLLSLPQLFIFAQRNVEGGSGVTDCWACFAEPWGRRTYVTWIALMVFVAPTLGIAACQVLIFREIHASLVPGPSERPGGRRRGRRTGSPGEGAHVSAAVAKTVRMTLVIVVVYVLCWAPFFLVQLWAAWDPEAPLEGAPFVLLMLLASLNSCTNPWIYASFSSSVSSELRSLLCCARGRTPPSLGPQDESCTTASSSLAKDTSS

[5] = mouse GCP cells, 48 hours with Shh, then [3H]-thymidine 16 h, mean±SEM, n=3

| Structure (SMILES) | competition for binding / displacement of [3H]-cyclopamine from Smo-D473H (Smo-D473H) | IC50 [2, 5] | inhibition of intracellular βarr2-GFP aggregation (Smo-633) | displacement of [3H]-cyclopamine from wild-type Smo (wild-type Smo) | Ki (wild-type Smo) | other results |
| --- | --- | --- | --- | --- | --- | --- |
| O=C(NC1CCN(Cc2ccc(N3CCC(NC(=O)c4cccc(-c5cccnc5)c4)CC3)nc2)CC1)c1cccc(-c2cccnc2)c1 [Compound A8] | completely displace | 16.6 ± 2.3 nM | activity of the synthesized material was confirmed | completely displaced | 37.9 ± 3.7 nM | IC50 ([1]; Shh-LIGHT2 cells, Sonic Hedgehog 50 ng/mL, mean±SEM, n=3, read-out: IC50, inhibition of Shh-induced Gli reporter activity): 2.6 ± 0.4 nM; Ki (Smo-D473H; fixed U2OS cells overexpressing Smo-D473H, 25 nM [3H]-cyclopamine, mean±SEM, read-out: Ki, displacement of [3H]-cyclopamine from Smo-D473H receptors): 478 ± 123 nM; activity after storage in solution [3]: retained activity; Hh-induced hair growth (Hh-induced hair growth): largely inhibited |
| CS(=O)(=O)c1ccc(C(=O)Nc2ccc(Cl)c(-c3ccccn3)c2)c(Cl)c1 [GDC-0449] | largely ineffective | 16.4 ± 2.5 nM | – | completely displaced | – | displacement of [3H]-cyclopamine from Smo-D473H at high concentration (Smo-D473H; 10 μM compound): only partially displaced |
| Cc1c(C(=O)Nc2ccc(N3C[C@@H](C)O[C@@H](C)C3)nc2)cccc1-c1ccc(OC(F)(F)F)cc1 [LDE-225] | largely ineffective | – | – | completely displaced | 6 ± 1.4 nM | – |
| CCN(C)Cc1ccc(N2CCC(NC(=O)c3cccc(-c4cccnc4)c3)CC2)nc1 [Tripos 3910] | – | – | – | – | – | Smo antagonist activity of resynthesized sample compared to previous test samples (Smo-633; material synthesized at Duke, assay not specified): substantially reduced Smo antagonist activity |
| CC1=C2C[C@H]3[C@@H](CC=C4C[C@@H](O)CC[C@@]43C)[C@@H]2CC[C@]12O[C@@H]1C[C@H](C)CN[C@H]1[C@H]2C [cyclopamine] | completely displace | – | inhibits the aggregation of βarr2-GFP | completely displaced | – | inhibition of the Gli-reporter activity ([1]; 1 μM concentration): strong inhibition; IC50 ([2]; Mus musculus): 414 ± 73 nM; inhibition of aggregation of V2R and βarr2-GFP [4]: not inhibited |

Source: patent publication US9512106B2, “Smoothened modulators and methods of use thereof” (Duke University, priority 2012, dated 2016)
